Tests used:
HepG2 = assay: Antiproliferative activity human HepG2 cells assessed as cell growth inhibition measured after 72 hrs by CCK8 assay; details: HepG2, 72 h
MOLM-13 = assay: Antiproliferative activity against human MOLM-13 cells harboring FLT3-ITD mutant assessed as cell growth inhibition measured after 72 hrs by CCK8 assay; details: MOLM-13, 72 h
A549 = assay: Antiproliferative activity human A549 cells assessed as cell growth inhibition measured after 72 hrs by CCK8 assay; details: A549, 72 h
[1] = Cytotoxicity against HUVEC cells assessed as cell growth inhibition measured after 72 hrs by CCK8 assay; format: toxicity, cell-based; details: human
HL-60 = assay: Antiproliferative activity against human HL-60 cells harboring wildtype FLT3 assessed as cell growth inhibition measured after 72 hrs by CCK8 assay; details: HL-60, 72 h
[2] = Cytotoxicity against human K562 cells assessed as cell growth inhibition measured after 72 hrs by CCK8 assay; format: toxicity, cell-based
MV4-11 [3] = assay: Antiproliferative activity against human MV4-11 cells harboring FLT3-ITD mutant assessed as cell growth inhibition measured after 72 hrs by CCK8 assay; details: MV4-11, 72 h
MV4-11 [4] = assay: Induction of apoptosis in human MV4-11 cells assessed as viable cells at 0.1 uM measured after 48 hrs by Annexin V-FITC/PI double staining based flow cytometric analysis (reference value: 80.26 %); format: functional; details: read-out: Activity
MV4-11 [5] = assay: Induction of apoptosis in human MV4-11 cells assessed as late apoptotic cells at 0.1 uM measured after 48 hrs by Annexin V-FITC/PI double staining based flow cytometric analysis (reference value: 12.03 %); format: functional
MV4-11 [6] = assay: Induction of apoptosis in human MV4-11 cells assessed as necrotic cells at 0.1 uM measured after 48 hrs by Annexin V-FITC/PI double staining based flow cytometric analysis (reference value: 5.67 %); format: functional
MV4-11 [7] = assay: Induction of apoptosis in human MV4-11 cells assessed as early apoptotic cells at 0.1 uM measured after 48 hrs by Annexin V-FITC/PI double staining based flow cytometric analysis (reference value: 2.04 %); format: functional

## C=CC(=O)Nc1cccc(CC(=O)Nc2ccc(-c3cc(C)nc4noc(N)c34)cc2)c1
HepG2
  IC50: > 10 µM
MOLM-13
  IC50: 2.52 µM
A549
  IC50: > 10 µM
[1]
  IC50 at 72 h: > 10 µM
HL-60
  IC50: 7.39 µM
[2]
  IC50 at 72 h: > 10 µM
MV4-11 [3]
  IC50: 1.26 µM

## C=CC(=O)Nc1ccc(C(=O)Nc2ccc(-c3cc(C)nc4noc(N)c34)cc2)cc1Br
HepG2
  IC50: 2.68 µM
MOLM-13
  IC50: 7.35 µM
A549
  IC50: > 10 µM
[1]
  IC50 at 72 h: > 10 µM
HL-60
  IC50: 0.601 µM
[2]
  IC50 at 72 h: > 10 µM
MV4-11 [3]
  IC50: 1.22 µM

## Cc1ccc(F)c(NC(=O)Nc2ccc(-c3cccc4[nH]nc(N)c34)cc2)c1 [LINIFANIB]
MV4-11 [4]
  viability at 0.1 µM: 33.4%
HepG2
  IC50: 4 µM
MOLM-13
  IC50: 0.019 µM
MV4-11 [5]
  Activity: 50.7%
A549
  IC50: 8.34 µM
[1]
  IC50 at 72 h: 4.92 µM
HL-60
  IC50: 7.88 µM
MV4-11 [6]
  Activity: 15.38%
MV4-11 [7]
  Activity: 0.55%
[2]
  IC50 at 72 h: 6.96 µM
MV4-11 [3]
  IC50: 0.0034 µM

## C=CC(=O)Nc1ccc(C(=O)Nc2ccc(-c3cc(C)nc4noc(N)c34)cc2)c(C(F)(F)F)c1
HepG2
  IC50: > 10 µM
MOLM-13
  IC50: 6.9 µM
A549
  IC50: > 10 µM
[1]
  IC50 at 72 h: > 10 µM
HL-60
  IC50: 3.68 µM
[2]
  IC50 at 72 h: > 10 µM
MV4-11 [3]
  IC50: 9.18 µM

## C=CC(=O)Nc1ccc(CC(=O)Nc2ccc(-c3cc(C)nc4noc(N)c34)cc2)cc1
HepG2
  IC50: > 10 µM
MOLM-13
  IC50: 6.23 µM
A549
  IC50: > 10 µM
[1]
  IC50 at 72 h: > 10 µM
HL-60
  IC50: 8.53 µM
[2]
  IC50 at 72 h: > 10 µM
MV4-11 [3]
  IC50: 2.17 µM

## C=CC(=O)Nc1ccc(C(=O)Nc2ccc(-c3cc(C)nc4noc(N)c34)cc2)cc1F
HepG2
  IC50: > 10 µM
MOLM-13
  IC50: > 10 µM
A549
  IC50: > 10 µM
[1]
  IC50 at 72 h: > 10 µM
HL-60
  IC50: > 10 µM
[2]
  IC50 at 72 h: > 10 µM
MV4-11 [3]
  IC50: > 10 µM

## C=CC(=O)Nc1ccc(C(=O)Nc2ccc(-c3cc(C)nc4noc(N)c34)cc2)cc1Cl
HepG2
  IC50: 2.61 µM
MOLM-13
  IC50: 3.76 µM
A549
  IC50: 5.54 µM
[1]
  IC50 at 72 h: 2.65 µM
HL-60
  IC50: 0.307 µM
[2]
  IC50 at 72 h: 7.52 µM
MV4-11 [3]
  IC50: 0.675 µM

## C=CC(=O)Nc1ccc(C(=O)Nc2ccc(-c3cc(C)nc4noc(N)c34)cc2)cc1C
HepG2
  IC50: 2.27 µM
MOLM-13
  IC50: > 10 µM
A549
  IC50: > 10 µM
[1]
  IC50 at 72 h: 3.23 µM
HL-60
  IC50: 0.448 µM
[2]
  IC50 at 72 h: 2.77 µM
MV4-11 [3]
  IC50: 3.33 µM

## C=CC(=O)Nc1ccc(C(=O)Nc2ccc(-c3cc(C)nc4noc(N)c34)cc2)cc1
HepG2
  IC50: > 10 µM
MOLM-13
  IC50: 4.78 µM
A549
  IC50: > 10 µM
[1]
  IC50 at 72 h: > 10 µM
HL-60
  IC50: 4.4 µM
[2]
  IC50 at 72 h: > 10 µM
MV4-11 [3]
  IC50: 1.59 µM

## C=CC(=O)Nc1cccc(NC(=O)Nc2ccc(-c3cc(C)nc4noc(N)c34)cc2)c1
HepG2
  IC50: > 10 µM
MOLM-13
  IC50: 2.27 µM
A549
  IC50: > 10 µM
[1]
  IC50 at 72 h: > 10 µM
HL-60
  IC50: > 10 µM
[2]
  IC50 at 72 h: > 10 µM
MV4-11 [3]
  IC50: 1.04 µM

## C=CS(=O)(=O)Nc1ccc(C(=O)Nc2ccc(-c3cc(C)nc4noc(N)c34)cc2)cc1
HepG2
  IC50: > 10 µM
MOLM-13
  IC50: > 10 µM
A549
  IC50: > 10 µM
[1]
  IC50 at 72 h: > 10 µM
HL-60
  IC50: > 10 µM
[2]
  IC50 at 72 h: > 10 µM
MV4-11 [3]
  IC50: 2.55 µM

## Cc1cc(-c2ccc(NC(=O)Nc3ccc(Cl)c(C(F)(F)F)c3)cc2)c2c(N)onc2n1
HepG2
  IC50: > 10 µM
MOLM-13
  IC50: 0.0046 µM
A549
  IC50: 7.31 µM
[1]
  IC50 at 72 h: > 10 µM
HL-60
  IC50: > 10 µM
[2]
  IC50 at 72 h: 1.73 µM
MV4-11 [3]
  IC50: 0.00089 µM

## C=CC(=O)Nc1ccc(CCC(=O)Nc2ccc(-c3cc(C)nc4noc(N)c34)cc2)cc1
HepG2
  IC50: > 10 µM
MOLM-13
  IC50: 7.42 µM
A549
  IC50: > 10 µM
[1]
  IC50 at 72 h: > 10 µM
HL-60
  IC50: > 10 µM
[2]
  IC50 at 72 h: > 10 µM
MV4-11 [3]
  IC50: 1.34 µM

## C=CC(=O)Nc1cccc(C(=O)Nc2ccc(-c3cc(C)nc4noc(N)c34)cc2)c1
HepG2
  IC50: 7.62 µM
MOLM-13
  IC50: 0.703 µM
A549
  IC50: > 10 µM
[1]
  IC50 at 72 h: > 10 µM
HL-60
  IC50: 3.95 µM
[2]
  IC50 at 72 h: > 10 µM
MV4-11 [3]
  IC50: 0.348 µM

## C=CC(=O)Nc1ccc(C(=O)Nc2ccc(-c3cc(C)nc4noc(N)c34)cc2)cc1OC
HepG2
  IC50: > 10 µM
MOLM-13
  IC50: > 10 µM
A549
  IC50: > 10 µM
[1]
  IC50 at 72 h: > 10 µM
HL-60
  IC50: > 10 µM
[2]
  IC50 at 72 h: > 10 µM
MV4-11 [3]
  IC50: 4.79 µM

## C=CC(=O)N1CCC(C(=O)Nc2ccc(-c3cc(C)nc4noc(N)c34)cc2)CC1
HepG2
  IC50: > 10 µM
MOLM-13
  IC50: > 10 µM
A549
  IC50: > 10 µM
[1]
  IC50 at 72 h: > 10 µM
HL-60
  IC50: > 10 µM
[2]
  IC50 at 72 h: > 10 µM
MV4-11 [3]
  IC50: > 10 µM

Reference: ChEMBL document CHEMBL5113503, “Synthesis and biological evaluation of 4-(4-aminophenyl)-6-methylisoxazolo[3,4-b] pyridin-3-amine covalent inhibitors as potential agents for the treatment of acute myeloid leukemia” (Bioorg Med Chem, 2022)
